Results as given in ChEMBL document CHEMBL2074083, “Functional characterization of SLCO1B1 (OATP-C) variants, SLCO1B1*5, SLCO1B1*15 and SLCO1B1*15+C1007G, by using transient expression systems of HeLa and HEK293 cells” (Pharmacogenet Genomics, 2005).
Values belong to the molecule of their own block, whether it stands above or below them.

Experiments:
Format in all cases: functional, cell-based
OATP1B1 = biological target: T1, OATP1B1 (Homo sapiens, UniProt Q9Y6L6); test: (§1) TP_TRANSPORTER: uptake in OATP1B1-expressing HEK293 cells; settings: HEK293 cells that express OATP1B1
T1 sequence (Q9Y6L6 whole entry): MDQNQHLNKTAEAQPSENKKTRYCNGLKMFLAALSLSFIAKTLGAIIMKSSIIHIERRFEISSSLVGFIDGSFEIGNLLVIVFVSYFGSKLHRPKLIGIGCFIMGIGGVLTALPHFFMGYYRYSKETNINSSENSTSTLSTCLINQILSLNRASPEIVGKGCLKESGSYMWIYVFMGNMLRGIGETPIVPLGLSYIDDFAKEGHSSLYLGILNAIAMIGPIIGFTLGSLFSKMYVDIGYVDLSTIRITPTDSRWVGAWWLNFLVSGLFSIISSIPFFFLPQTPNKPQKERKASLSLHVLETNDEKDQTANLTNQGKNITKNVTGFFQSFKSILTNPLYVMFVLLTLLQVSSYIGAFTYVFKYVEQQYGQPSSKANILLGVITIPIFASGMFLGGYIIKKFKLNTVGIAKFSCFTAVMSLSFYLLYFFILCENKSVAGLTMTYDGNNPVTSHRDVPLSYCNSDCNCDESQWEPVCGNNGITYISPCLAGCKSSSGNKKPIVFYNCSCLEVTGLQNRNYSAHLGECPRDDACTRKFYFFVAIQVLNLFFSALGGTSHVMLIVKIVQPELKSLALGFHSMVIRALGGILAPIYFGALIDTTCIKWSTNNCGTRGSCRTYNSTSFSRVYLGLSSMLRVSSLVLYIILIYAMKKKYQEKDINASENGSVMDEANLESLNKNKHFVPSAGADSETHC

[1] = biological target: T2, Solute carrier organic anion transporter family member 1B1 (Homo sapiens, UniProt Q9Y6L6); test: as §1; settings: hek293
T2 sequence (Q9Y6L6 whole entry): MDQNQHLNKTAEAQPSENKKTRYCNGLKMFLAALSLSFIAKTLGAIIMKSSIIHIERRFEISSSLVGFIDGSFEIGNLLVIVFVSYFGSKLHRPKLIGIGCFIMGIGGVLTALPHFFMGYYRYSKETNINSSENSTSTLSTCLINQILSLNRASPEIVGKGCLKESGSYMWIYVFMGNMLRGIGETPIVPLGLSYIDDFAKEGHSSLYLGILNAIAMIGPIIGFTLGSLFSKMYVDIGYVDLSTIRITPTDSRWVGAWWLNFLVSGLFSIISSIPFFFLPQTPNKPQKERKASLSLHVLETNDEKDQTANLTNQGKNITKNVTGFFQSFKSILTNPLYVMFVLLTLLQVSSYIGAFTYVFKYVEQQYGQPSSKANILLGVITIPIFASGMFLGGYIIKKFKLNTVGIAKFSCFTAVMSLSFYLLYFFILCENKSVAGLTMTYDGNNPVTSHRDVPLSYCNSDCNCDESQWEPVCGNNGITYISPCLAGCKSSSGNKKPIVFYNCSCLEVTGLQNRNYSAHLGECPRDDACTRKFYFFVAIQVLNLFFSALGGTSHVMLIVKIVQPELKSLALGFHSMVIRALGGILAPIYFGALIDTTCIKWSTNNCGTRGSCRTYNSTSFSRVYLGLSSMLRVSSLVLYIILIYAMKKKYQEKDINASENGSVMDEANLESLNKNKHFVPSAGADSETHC

[2] = substrate: CC[C@H](C)C(=O)O[C@H]1C[C@H](O)C=C2C=C[C@H](C)[C@H](CC[C@@H](O)C[C@@H](O)CC(=O)O)[C@H]21; test: as §1

- Km (OATP1B1): 12.4 µM
Molecule: CC(C)c1c(C(=O)Nc2ccccc2)c(-c2ccccc2)c(-c2ccc(F)cc2)n1CC[C@@H](O)C[C@@H](O)CC(=O)O [ATORVASTATIN]

- Activity [1]: substrate [(+)]
Molecule: COCc1c(C(C)C)nc(C(C)C)c(/C=C/[C@@H](O)C[C@@H](O)CC(=O)O)c1-c1ccc(F)cc1 [CERIVASTATIN]

B1: Solute carrier organic anion transporter family member 1B1 (Homo sapiens) (protein)
chain: MDQNQHLNKTAEAQPSENKKTRYCNGLKMFLAALSLSFIAKTLGAIIMKSSIIHIERRFEISSSLVGFIDGSFEIGNLLVIVFVSYFGSKLHRPKLIGIGCFIMGIGGVLTALPHFFMGYYRYSKETNINSSENSTSTLSTCLINQILSLNRASPEIVGKGCLKESGSYMWIYVFMGNMLRGIGETPIVPLGLSYIDDFAKEGHSSLYLGILNAIAMIGPIIGFTLGSLFSKMYVDIGYVDLSTIRITPTDSRWVGAWWLNFLVSGLFSIISSIPFFFLPQTPNKPQKERKASLSLHVLETNDEKDQTANLTNQGKNITKNVTGFFQSFKSILTNPLYVMFVLLTLLQVSSYIGAFTYVFKYVEQQYGQPSSKANILLGVITIPIFASGMFLGGYIIKKFKLNTVGIAKFSCFTAVMSLSFYLLYFFILCENKSVAGLTMTYDGNNPVTSHRDVPLSYCNSDCNCDESQWEPVCGNNGITYISPCLAGCKSSSGNKKPIVFYNCSCLEVTGLQNRNYSAHLGECPRDDACTRKFYFFVAIQVLNLFFSALGGTSHVMLIVKIVQPELKSLALGFHSMVIRALGGILAPIYFGALIDTTCIKWSTNNCGTRGSCRTYNSTSFSRVYLGLSSMLRVSSLVLYIILIYAMKKKYQEKDINASENGSVMDEANLESLNKNKHFVPSAGADSETHC
- Km [2]: 85.7 µM
